Reference: patent publication US9288989B2, “Synergistic weed control from applications of penoxsulam and acetochlor” (Dow AgroSciences LLC, priority 2013, dated 2016)
Several values for one entry are separate records, joined by “and”; a condition that tells them apart may be missing. Equal entries are not always repeated.

Key:
AMARE = assay: Pre-emergence field trial, weed control, AMARE; type: in vivo, Amaranthus retroflexus; details: 55 days
Procedure: (§1) The (a) penoxsulam or an agriculturally acceptable salt thereof is mixed with or applied in combination with (b) acetochlor or an agriculturally acceptable salt thereof in an amount sufficient to induce a synergistic herbicidal effect. […] As described in the Herbicide Handbook of the Weed Science Society of America, Ninth Edition, 2007, p. […] In some embodiments, the damage or injury to the undesired vegetation caused by the compositions and methods disclosed herein is evaluated using a scale from 0% to 100%, when compared with the untreated control vegetation, wherein 0% indicates no damage to the undesired vegetation and 100% indicates complete destruction of the undesired vegetation.
(§2) In Colby's equation, the value E corresponds to the effect (plant damage or injury) that is to be expected if the activity of the individual compounds is additive. If the observed effect is higher than the value E calculated according to the Colby equation, then a synergistic effect is present according to the Colby equation. […]
(§3) Colby's equation was used to determine the herbicidal effects expected from the mixtures, as described above. The results were measured at the evaluation intervals provided in Table 1 after the first application of the compositions. […]

CHEAL = assay: Pre-emergence field trial, weed control, CHEAL; type: in vivo, Chenopodium album L.
Text: (§4) The (a) penoxsulam or an agriculturally acceptable salt thereof is mixed with or applied in combination with (b) acetochlor or an agriculturally acceptable salt thereof in an amount sufficient to induce a synergistic herbicidal effect. […] As described in the Herbicide Handbook of the Weed Science Society of America, Ninth Edition, 2007, p. 429, “‘synergism’ [is] an interaction of two or more factors such that the effect when combined is greater than the predicted effect based on the response to each factor applied separately.” Synergistic in the herbicide context can mean that the use of (a) and (b) as defined above results in an increased weed control effect compared to the weed control effects that are possible with the use of (a) or (b) alone. In some embodiments, the damage or injury to the undesired vegetation caused by the compositions and methods disclosed herein is evaluated using a scale from 0% to 100%, when compared with the untreated control vegetation, wherein 0% indicates no damage to the undesired vegetation and 100% indicates complete destruction of the undesired vegetation.
(§5) In Colby's equation, the value E corresponds to the effect (plant damage or injury) that is to be expected if the activity of the individual compounds is additive. If the observed effect is higher than the value E calculated according to the Colby equation, then a synergistic effect is present according to the Colby equation.
(§6) Field trials were conducted with applications made in the area of naturally occurring weed populations in multiple countries. The soil or water was treated prior to the emergence of target plants. All treatments were applied using a randomized complete block trial design, with 3-5 replications per treatment.
(§7) Treatments consisted of penoxsulam and acetochlor applied alone and in combination. Spray solutions were prepared using an appropriate amount of dilution to treat the area of the plots based on use rates and water volumes necessary based on a per hectare basis. Spray solutions were prepared and applied with the specified active ingredients in single and two-way combinations to be able to perform Colby synergy and safening calculations. Formulated products were applied to the soil with a backpack sprayer equipped with flat fan nozzles calibrated to deliver from 200 to 300 L/ha at a normal spray height above the soil, at spray pressures ranging from 200 to 400 kilopascals (kPa). […]
as §3

VIOAR = assay: Pre-emergence field trial, weed control, VIOAR; type: in vivo, Viola arvensis Murr.; details: 61 days
Procedure: as §1, §2, §3

GALAP = assay: Pre-emergence field trial, weed control, GALAP; type: in vivo, Galium aparine L.
Text: as §4, §5, §6, §7, §3

SOLNI = assay: Pre-emergence field trial, weed control, SOLNI; type: in vivo, Solanum nigrum
Text: as §4, §5, §6, §7, §3

ECHCO = assay: Pre-emergence field trial, weed control, ECHCO; type: in vivo, Echinochloa colonum (L.) Link
Text: as §4, §5, §6
(§8) Treatments consisted of penoxsulam and acetochlor applied alone and in combination. Spray solutions were prepared using an appropriate amount of dilution to treat the area of the plots based on use rates and water volumes necessary based on a per hectare basis. Spray solutions were prepared and applied with the specified active ingredients in single and two-way combinations to be able to perform Colby synergy and safening calculations. Formulated products were applied to the soil with a backpack sprayer equipped with flat fan nozzles calibrated to deliver from 200 to 300 L/ha at a normal spray height above the soil, at spray pressures ranging from 200 to 400 kilopascals (kPa). Formulated products were applied into flooded rice paddy by calculating the area to be treated, calculating the amount of active ingredient necessary to treat the area at the specified rates, then mixing the treatments in water to apply 8 L/ha of water to the plots.
(§9) Colby's equation was used to determine the herbicidal effects expected from the mixtures, as described above. The results were measured at the evaluation intervals provided in Table 1 after the first application of the compositions. […] The herbicide tank-mix combinations tested, application rates and ratios employed, plant species tested, and results are given below.

CYPRO = assay: Pre-emergence field trial, weed control, CYPRO; type: in vivo, Cyperus rotundus L.; details: 35 days
Procedure: as §1, §2, §3

TRBSS = assay: Pre-emergence field trial, weed control, TRBSS; type: in vivo, species of the genus Tribulus
Text: as §4, §5, §6, §8, §9

POLPE = assay: Pre-emergence field trial, weed control, POLPE; type: in vivo, Polygonum persicaria L.; details: 14 days
Procedure: as §1, §2, §3

POLCO = assay: Pre-emergence field trial, weed control, POLCO; type: in vivo, Polygonum convolvulus L.
Text: as §4, §5, §6, §8, §9

POLLA = assay: Pre-emergence field trial, weed control, POLLA; type: in vivo, Polygonum lapathifolium L.
Text: as §4, §5, §6, §8, §9

corn (ZEAMX) = assay: Pre-emergence field trial, crop injury, corn; details: in vivo
Procedure: as §1, §2
Colby's equation was used to determine the herbicidal effects expected from the mixtures, as described above. The results were measured at the evaluation intervals provided in Table 2 after the first application of the compositions. […]

[1] = 64 days, acetochlor 1900 g ai/ha
[2] = 28 days, acetochlor 2300 g ai/ha

Compound: CCOCN(C(=O)CCl)c1c(C)cccc1CC [Acetochlor, 2-chloro-N-(ethoxymethyl)-N-(2-ethyl-6-methylphenyl)acetamide]
- Mean % weed control (AMARE; acetochlor 2000 g ai/ha): 0%
- Mean % weed control (CHEAL; 34 days, acetochlor 1400 g ai/ha): 3.33%
- Mean % weed control (CHEAL; 61 days, acetochlor 1400 g ai/ha): 36.67%
- Mean % weed control (VIOAR; acetochlor 1400 g ai/ha): 0%
- Mean % weed control (GALAP; 38 days, acetochlor 1900 g ai/ha): 6.67%
- Mean % weed control (GALAP; [1]): 10%
- Mean % weed control (SOLNI; [1]): 13.33%
- Mean % weed control (SOLNI; 92 days, acetochlor 1900 g ai/ha): 3.33%
- Mean % weed control (ECHCO; 20 days, acetochlor 15 g ai/ha): 22.5%
- Mean % weed control (ECHCO; 35 days, acetochlor 15 g ai/ha): 15%
- Mean % weed control (CYPRO; acetochlor 15 g ai/ha): 4.25%
- Mean % weed control (TRBSS; 35 days, acetochlor 1800 g ai/ha): 78%
- Mean % weed control (TRBSS; 49 days, acetochlor 1800 g ai/ha): 63%
- Mean % weed control (POLPE; acetochlor 1400 g ai/ha): 36.67%
- Mean % weed control (POLCO; [2]): 5% and 12.5%
- Mean % weed control (POLLA; 14 days, acetochlor 2300 g ai/ha): 20%
- Mean % weed control (POLLA; [2]): 10% and 7.5%
- Mean % weed control (POLLA; 98 days, acetochlor 2300 g ai/ha): 12.5%
- Mean % crop injury (corn (ZEAMX)): 0%

Compound: COc1cnc(OC)n2nc(NS(=O)(=O)c3c(OCC(F)F)cccc3C(F)(F)F)nc12 [Penoxsulam]
- Mean % weed control (AMARE; penoxsulam 12 g ai/ha): 30%
- Mean % weed control (CHEAL; 34 days, penoxsulam 20 g ai/ha): 56.67%
- Mean % weed control (CHEAL; 61 days, penoxsulam 20 g ai/ha): 50%
- Mean % weed control (VIOAR; penoxsulam 20 g ai/ha): 0%
- Mean % weed control (GALAP; 38 days, penoxsulam 20 g ai/ha): 40%
- Mean % weed control (GALAP; 64 days, penoxsulam 20 g ai/ha): 60%
- Mean % weed control (SOLNI; 64 days, penoxsulam 20 g ai/ha): 40%
- Mean % weed control (SOLNI; 92 days, penoxsulam 20 g ai/ha): 30%
- Mean % weed control (ECHCO; 20 days, penoxsulam 15 g ai/ha): 38.75%
- Mean % weed control (ECHCO; 20 days, penoxsulam 20 g ai/ha): 50%
- Mean % weed control (ECHCO; 35 days, penoxsulam 15 g ai/ha): 55%
- Mean % weed control (CYPRO; penoxsulam 20 g ai/ha): 39.38%
- Mean % weed control (TRBSS; 35 days, penoxsulam 5 g ai/ha): 32%
- Mean % weed control (TRBSS; 35 days, penoxsulam 10 g ai/ha): 38.5%
- Mean % weed control (TRBSS; 49 days, penoxsulam 5 g ai/ha): 13%
- Mean % weed control (TRBSS; 49 days, penoxsulam 10 g ai/ha): 32%
- Mean % weed control (POLPE; penoxsulam 20 g ai/ha): 80%
- Mean % weed control (POLCO; 14 days, penoxsulam 15 g ai/ha): 85%
- Mean % weed control (POLCO; 14 days, penoxsulam 20 g ai/ha): 87.5%
- Mean % weed control (POLCO; 28 days, penoxsulam 15 g ai/ha): 65%
- Mean % weed control (POLCO; 28 days, penoxsulam 20 g ai/ha): 77.5%
- Mean % weed control (POLLA; 14 days, penoxsulam 15 g ai/ha): 85%
- Mean % weed control (POLLA; 28 days, penoxsulam 15 g ai/ha): 75%
- Mean % weed control (POLLA; 28 days, penoxsulam 20 g ai/ha): 90%
- Mean % weed control (POLLA; 98 days, penoxsulam 15 g ai/ha): 71.25%
